Data as given in ChEMBL document CHEMBL1201862, “PubChem BioAssay data set” (2004).
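48-hour exposure; five concentrations; linearly interpolated endpoints. GI50 marks 50% less growth.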 The source made the active and inactive calls. Cut-off read from the data, not from the text of the source: active = GI50 up to about 1.1 µM and inactive = higher.

How the values were obtained:
Assay in all cases: DTP human tumour cell line panel, 48 h
[1] = test system: 786-0
[2] = test system: A498
[3] = test system: BT-549
[4] = test system: DU-145
[5] = test system: HL-60
[6] = test system: HOP-92
[7] = test system: HT-29
[8] = test system: LOX IMVI
[9] = test system: M14
[10] = test system: MDA-MB-231
[11] = test system: MDA-MB-435
[12] = test system: NCI-H226
[13] = test system: NCI-H522
[14] = test system: OVCAR-5
[15] = test system: RXF 393
[16] = test system: SF-295
[17] = test system: SK-OV-3
[18] = test system: SW-620
[19] = test system: NCI-H460
[20] = test system: SF-539

Measured: GI50

O=C1c2cc([N+](=O)[O-])ccc2-c2ccc3c4ccc5c6c(ccc(c7ccc1c2c73)c64)C(=O)c1cc([N+](=O)[O-])ccc1-5
inactive: [1] > 100 µM | [2] 4.03 µM | [3] > 100 µM | [4] > 100 µM | [5] > 100 µM | [6] > 100 µM | [7] > 100 µM | [8] > 100 µM | [9] > 100 µM | [10] > 100 µM | [11] > 100 µM | [12] > 100 µM | [13] > 100 µM | [14] > 100 µM | [15] > 100 µM | [16] > 100 µM | [17] > 100 µM | [18] > 100 µM

Cc1cc(OCC(=O)O)c(Cl)cc1Cl
inactive: [1] > 100 µM | [2] > 100 µM | [3] > 100 µM | [4] > 100 µM | [5] > 100 µM | [6] > 100 µM | [7] > 100 µM | [8] > 100 µM | [9] > 100 µM | [10] > 100 µM | [11] > 100 µM | [12] > 100 µM | [19] > 100 µM | [13] > 100 µM | [14] > 100 µM | [15] > 100 µM | [16] > 100 µM | [18] > 100 µM

COc1cc(/C=C/C2=NN(c3cccc(S(=O)(=O)O)c3)C3(C2)SCC(=O)N3c2nc3ccccc3s2)cc(OC)c1OC (stereo not drawn)
inactive: [1] 18.4 µM | [2] 39.9 µM | [3] 42 µM | [4] 29.4 µM | [5] 23.8 µM | [6] > 100 µM | [7] 90.8 µM | [8] 20.4 µM | [9] 74.8 µM | [10] 43.3 µM | [11] 23 µM | [12] 44.8 µM | [19] 37.5 µM | [13] 18 µM | [14] > 100 µM | [15] 56.4 µM | [20] 46 µM | [18] 61.7 µM

CCOC(=O)C(C)c1nc2cc(N3CCOCC3)c(F)cc2[nH]c1=O (stereo not drawn)
inactive: [1] > 100 µM | [2] > 100 µM | [3] > 100 µM | [4] > 100 µM | [5] > 100 µM | [6] > 100 µM | [7] > 100 µM | [9] > 100 µM | [10] > 100 µM | [11] > 100 µM | [12] > 100 µM | [19] > 100 µM | [13] 53.1 µM | [14] > 100 µM | [15] > 100 µM | [16] > 100 µM | [20] > 100 µM | [17] > 100 µM | [18] > 100 µM
